# “Also recorded” adds a separate entry of the source. Read-outs that look alike come from different tables or passages of the source.
# How the values were obtained:
# [1] = patients with MS, all studies; cited from earlier work
# Gtf2i cKO mice [2] = assay: Three-chamber social preference test; type: in vivo; settings: acute 4-AP 1 mg/kg i.p., three hours post administration
# Procedure: Stranger mice were wildtype S129 Sv males (Jackson Laboratory) with matched age and body weight to test mice. Stranger mice were habituated by placing them inside an inverted wire cup for 30 min, two sessions per day for three consecutive days before tests. Each stranger mouse was used a maximum of two times per day. The social test apparatus was made of a clear Plexiglas box (65 cm (L)×44 cm (W)×30 cm (H)) with a removable floor and partitions dividing the box into left, center, and right chambers. The center chamber (21 cm×22 cm) was half the width of the left and right chambers (each is 21 cm×44 cm). These three chambers were interconnected with 5 cm openings between each chamber that could be closed or opened manually with a lever-operated door. The inverted wire cups containing the stranger mice were cylindrical, 10 cm in height, with a bottom diameter of 10 cm and with metal bars spaced 0.8 cm apart. A weighted cup was placed on top of the inverted wire cups to prevent the test mice from climbing onto the wire cup. […] Then, experimenter blinded to genotypes analyzed for timespent in close proximity to the stranger mouse or object was analyzed using the Noldus Ethovison XT software. Social preference index was calculated as follows: (time in close interaction with stranger)/(time in close interaction with object). […]
# [3] = cited from earlier work
# Gtf2i cKO mice [4] = assay: Evoked field potential recordings in corpus callosum; type: in vivo; settings: acute 4-AP administration
# Procedure: In vivo evoked field potential recording in corpus callosum was referenced to that from in vitro studies (69, 70). Animals were anesthetized with urethane (1,000 mg/kg) and placed on a stereotaxic instrument. Body temperature was maintained by thermostat at 37.5-38° C. Craniotomy was performed and dura was kept intact. Stainless steel stimulation electrode (300˜500 kOhm, WPI) was positioned in corpus callosum in left hemisphere (1.5 mm posterior to Bregma, 1 mm lateral from midline, 1,000˜1,300 μm beneath cortical surface), and tungsten recording electrode (2˜3 MOhm, FHC) was positioned in corpus callosum at same coronal plane in right hemisphere (1.5 mm posterior to Bregma, 1 mm from midline, 1,000˜1,300 μm beneath cortical surface). Electrical stimulation (0˜200 uA, 0.2 ms pulse width, 0.2 Hz) was delivered while both positions of stimulation and recording electrodes were slightly adjusted to optimize signal. Signals were filtered at 0.1-3,000 Hz and gained at 1,000 times (Model 1700, A-M Systems), digitized and sampled at 10,000 Hz (Digidata 1440A, Molecular Devices), and analyzed offline (Clampfit). […] Response amplitude was determined by measuring the vertical distance from negative peak to the tangent joining preceding and following positivities. […]
# [5] = tested on: chronically injured spinal cord of guinea pigs; settings: cited from earlier work
# Gtf2i cKO mice [6] = assay: Intra-cortical microstimulation (ICMS) and EMG recording (corticospinal output); type: in vivo; settings: acute 4-AP 2 mg/kg i.p., test 30 to 60 minutes after injection; cKO and control mice
# Procedure: ICMS and EMG recording protocol was adopted from previous studies (71, 72). Each animal was anesthetized with ketamine-xylazine (100 mg/kg ketamine, 10 mg/kg xylazine, i.p.). Anesthesia level was maintained at a steady level to that animal was unresponsive to toe pinch while muscle tone was present.
# A digital stereotaxic frame was used to mount the animal's head and guide stimulation electrode (stainless steel, 0.5 MOhm; World Precision Instruments) over an array of motor cortical sites (0.9 mm caudal and 0.6 mm rostral to Bregma, 0.9 mm to 1.8 mm lateral to midline, with 300 μm spacing between sites). Stimulation electrode was inserted into the cortex at 500 μm depth, targeting layer V motor neurons. The exposed brain area was immersed with silicon oil to avoid dehydration. Electrical stimulation (biphasic, 0.2 ms pulse width, 333 Hz, 45 ms) was adjusted between 100 to 300 μA and located at the position that has the lowest threshold to trigger EMG signal. Stimulation intensity of two folds of threshold was then used for EMG recording and analysis. To perform EMG recording, an incision was made on hindlimb to expose the muscles while fascia remained intact. […] EMG signals were acquired using differential AC amplifier (1700, A-M Systems, WA) with 10-1000 Hz bandpass filter, sampled at 5 kHz using a digitizer (Digidata 1440A, Axon Instruments), and analyzed by pClamp Software. […]
# Gtf2i cKO mice [7] = assay: Horizontal ladder walking test; type: in vivo; settings: acute 4-AP 1 mg/kg i.p., three hours post administration
# Procedure: Mice were tested for their ability to walk on a horizontal ladder with irregularly spaced rungs, following the procedure described previously (44). Animals were trained to cross the ladder until their performance achieved the plateau (with a forelimb error of 20% or less). The irregular pattern was changed from trial to trial during training. All trials were video recorded with Hotshot e64 and paw placement was analyzed. The paw placement on rungs were categorized as Hit (platar contact and digits closure), Miss (paw falls between rungs) and Slip (imprecise contact with one or few digits). Experimenter was blinded to genotypes.
# Mice were habituated to needle injections (i.p.) for three days before behavioral tests, by two i.p. injections of 200 μL of saline administered per day. […] All behavioral tests were therefore accomplished three hours post systemic administration. Saline-injected mice in each genotype (Control or cKO mice) were referred as the baseline group for the treatment group, which was injected with 4-AP. Experimenter was blinded to genotypes.
# Shaker channels = settings: at concentration of 1 mM; cited from earlier work
# [8] = tested on: normal adult myelinated axons; settings: cited from earlier work
# [9] = oral, non-sustained release, animals; cited from earlier work
# [10] = cited from earlier work; remark: listed apart in the source
# [11] = cited from earlier work; remark: listed apart in the source
# socially isolated mice = settings: cited from earlier work
# Gtf2i cKO mice [12] = assay: Number of myelinating oligodendrocytes (immunofluorescence); type: in vivo; settings: clemastine 10 mg/kg daily by gastric gavage for 14 days
# Procedure: Basic immunofluorescence procedure was used as previously described (68). Mice were deeply anesthetized with isoflurane and transcardially perfused with 15 ml ice-cold PBS solution followed by 15 ml fresh ice-cold 4% paraformaldehyde (PFA) in PBS. Brains were dissected and kept in 4% PFA overnight at 4° C. and then sectioned at 100 μm thickness by vibratome (Leica). Floating brain slices were washed 3 times, 5 min each, with PBS and permeabilized with 1.2% Triton X-100 in PBS for 15 min at room temperature. Slices were then washed 3 times, 5 min each, followed by blocking with 5% normal goat serum, 2% BSA, 0.2% Triton X-100 in PBS for 1 h at room temperature. Primary antibodies diluted in blocking buffer were applied to sections overnight at 4° C. […]
# To quantify cellular properties in the cortex, images were taken by an experimenter blinded to genotypes with a 10× magnification at the motor cortex area at bregma 0.5 mm. […] The midline of the CC was imaged at the same bregma, using a 40× magnification, and the whole depth of the CC was imaged by taking 10 images as part of a Z-stack serial imaging, and then all images were stacked together to a single image which was then analyzed for quantification. Cell numbers were quantified blindly with automation using ImageJ. […] The pixel intensity of H3ac and H3K9me3 was quantified using ImageJ, as was previously described (37). […]
# N-type calcium channels = N-type calcium channels (Homo sapiens, UniProt Q00975); settings: read-out: EC50 for activation of N-type calcium channels; cited from earlier work
# Chain of N-type calcium channels (Q00975 whole entry): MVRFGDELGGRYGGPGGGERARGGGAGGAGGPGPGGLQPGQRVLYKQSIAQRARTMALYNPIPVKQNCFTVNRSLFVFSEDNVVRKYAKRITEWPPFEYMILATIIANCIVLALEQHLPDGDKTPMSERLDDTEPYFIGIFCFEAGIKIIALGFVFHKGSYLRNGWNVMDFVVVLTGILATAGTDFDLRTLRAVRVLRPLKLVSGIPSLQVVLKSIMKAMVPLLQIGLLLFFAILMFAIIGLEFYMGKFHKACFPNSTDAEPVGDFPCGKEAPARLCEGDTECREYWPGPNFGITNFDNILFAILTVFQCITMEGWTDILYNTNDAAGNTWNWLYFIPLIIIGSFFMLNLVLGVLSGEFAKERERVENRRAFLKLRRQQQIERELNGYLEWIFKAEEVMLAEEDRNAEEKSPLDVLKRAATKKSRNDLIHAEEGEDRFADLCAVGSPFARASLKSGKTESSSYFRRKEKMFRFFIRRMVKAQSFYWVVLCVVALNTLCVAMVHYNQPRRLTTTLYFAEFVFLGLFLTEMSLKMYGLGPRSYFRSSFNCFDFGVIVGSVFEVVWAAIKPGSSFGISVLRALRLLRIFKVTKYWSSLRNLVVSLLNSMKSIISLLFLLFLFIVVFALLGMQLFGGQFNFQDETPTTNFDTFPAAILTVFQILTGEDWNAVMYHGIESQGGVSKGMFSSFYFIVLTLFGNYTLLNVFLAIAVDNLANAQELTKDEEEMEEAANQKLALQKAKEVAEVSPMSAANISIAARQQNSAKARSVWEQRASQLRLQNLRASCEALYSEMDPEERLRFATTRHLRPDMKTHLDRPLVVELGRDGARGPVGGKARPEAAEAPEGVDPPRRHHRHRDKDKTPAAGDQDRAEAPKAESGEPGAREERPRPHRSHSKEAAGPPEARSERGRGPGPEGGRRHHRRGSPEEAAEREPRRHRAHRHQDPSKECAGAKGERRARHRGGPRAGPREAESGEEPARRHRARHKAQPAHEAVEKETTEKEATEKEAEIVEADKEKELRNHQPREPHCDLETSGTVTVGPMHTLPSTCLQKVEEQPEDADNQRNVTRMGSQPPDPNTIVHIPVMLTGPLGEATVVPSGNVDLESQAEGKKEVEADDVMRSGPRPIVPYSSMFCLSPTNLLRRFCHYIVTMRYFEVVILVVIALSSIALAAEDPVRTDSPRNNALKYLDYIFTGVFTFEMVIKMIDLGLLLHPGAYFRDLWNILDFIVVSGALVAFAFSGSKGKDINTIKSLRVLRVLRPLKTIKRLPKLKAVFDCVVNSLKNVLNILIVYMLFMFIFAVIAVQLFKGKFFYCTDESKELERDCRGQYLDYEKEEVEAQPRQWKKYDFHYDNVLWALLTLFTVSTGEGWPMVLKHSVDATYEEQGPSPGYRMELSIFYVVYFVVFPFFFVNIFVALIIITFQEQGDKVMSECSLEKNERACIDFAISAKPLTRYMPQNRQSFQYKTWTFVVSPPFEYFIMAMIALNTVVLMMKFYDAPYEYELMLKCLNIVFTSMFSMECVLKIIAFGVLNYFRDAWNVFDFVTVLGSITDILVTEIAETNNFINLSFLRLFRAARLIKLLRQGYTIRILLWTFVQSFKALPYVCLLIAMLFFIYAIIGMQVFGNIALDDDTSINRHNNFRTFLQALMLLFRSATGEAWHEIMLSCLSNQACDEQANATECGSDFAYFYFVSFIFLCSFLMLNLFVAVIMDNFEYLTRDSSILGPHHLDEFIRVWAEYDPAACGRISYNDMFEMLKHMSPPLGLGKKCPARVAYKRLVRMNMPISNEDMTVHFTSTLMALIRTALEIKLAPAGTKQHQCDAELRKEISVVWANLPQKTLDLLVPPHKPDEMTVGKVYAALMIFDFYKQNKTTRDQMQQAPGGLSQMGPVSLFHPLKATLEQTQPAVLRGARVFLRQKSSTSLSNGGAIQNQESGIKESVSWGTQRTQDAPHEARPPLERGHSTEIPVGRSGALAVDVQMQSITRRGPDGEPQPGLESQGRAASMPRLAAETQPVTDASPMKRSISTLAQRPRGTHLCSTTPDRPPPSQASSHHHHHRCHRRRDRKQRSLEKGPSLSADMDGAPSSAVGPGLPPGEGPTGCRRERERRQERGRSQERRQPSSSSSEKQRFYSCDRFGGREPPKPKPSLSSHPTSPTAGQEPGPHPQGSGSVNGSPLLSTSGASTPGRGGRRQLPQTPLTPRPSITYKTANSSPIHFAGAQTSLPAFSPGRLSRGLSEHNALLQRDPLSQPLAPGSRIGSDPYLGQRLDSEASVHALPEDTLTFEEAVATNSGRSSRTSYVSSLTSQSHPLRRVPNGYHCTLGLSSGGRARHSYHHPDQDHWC
# Chain of N-type calcium channels (P54284 whole entry partner): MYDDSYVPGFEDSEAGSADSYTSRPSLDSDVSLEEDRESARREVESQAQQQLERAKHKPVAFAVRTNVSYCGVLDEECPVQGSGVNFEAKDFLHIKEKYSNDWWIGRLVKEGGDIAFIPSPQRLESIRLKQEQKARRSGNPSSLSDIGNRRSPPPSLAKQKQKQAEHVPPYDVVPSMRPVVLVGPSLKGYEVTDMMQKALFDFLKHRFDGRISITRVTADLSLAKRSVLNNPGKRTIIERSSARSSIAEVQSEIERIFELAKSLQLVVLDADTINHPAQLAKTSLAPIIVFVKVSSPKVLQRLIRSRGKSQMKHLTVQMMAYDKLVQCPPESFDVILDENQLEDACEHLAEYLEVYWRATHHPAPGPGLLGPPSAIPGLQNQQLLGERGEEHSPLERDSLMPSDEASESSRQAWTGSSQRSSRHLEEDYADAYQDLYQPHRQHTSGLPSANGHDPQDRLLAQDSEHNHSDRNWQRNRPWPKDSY
# Chain of N-type calcium channels (P54289 25-946 partner limits assumed): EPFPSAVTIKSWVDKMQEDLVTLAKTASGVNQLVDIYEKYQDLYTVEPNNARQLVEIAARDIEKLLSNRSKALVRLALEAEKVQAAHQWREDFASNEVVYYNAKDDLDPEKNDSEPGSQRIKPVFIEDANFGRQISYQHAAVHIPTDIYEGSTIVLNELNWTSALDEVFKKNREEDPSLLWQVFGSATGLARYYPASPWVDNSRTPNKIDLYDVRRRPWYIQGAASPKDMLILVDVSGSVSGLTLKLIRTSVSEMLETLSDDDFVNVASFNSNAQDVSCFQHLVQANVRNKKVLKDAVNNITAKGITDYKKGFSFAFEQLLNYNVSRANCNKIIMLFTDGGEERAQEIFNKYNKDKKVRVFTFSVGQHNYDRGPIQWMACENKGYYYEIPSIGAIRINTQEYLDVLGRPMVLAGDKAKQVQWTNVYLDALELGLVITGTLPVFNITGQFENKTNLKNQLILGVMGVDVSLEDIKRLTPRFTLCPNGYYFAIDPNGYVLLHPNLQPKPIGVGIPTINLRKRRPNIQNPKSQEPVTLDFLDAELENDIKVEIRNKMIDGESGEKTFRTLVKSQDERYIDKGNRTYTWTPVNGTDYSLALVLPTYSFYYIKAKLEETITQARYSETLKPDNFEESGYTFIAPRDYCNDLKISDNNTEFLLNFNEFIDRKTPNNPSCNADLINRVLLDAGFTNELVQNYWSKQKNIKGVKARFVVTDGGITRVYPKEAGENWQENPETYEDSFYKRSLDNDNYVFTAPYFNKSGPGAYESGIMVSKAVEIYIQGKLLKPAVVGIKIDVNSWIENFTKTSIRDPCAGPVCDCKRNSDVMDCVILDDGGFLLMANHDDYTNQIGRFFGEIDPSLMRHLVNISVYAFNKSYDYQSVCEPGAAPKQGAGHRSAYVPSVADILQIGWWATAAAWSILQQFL
# Chain of N-type calcium channels (P54289 947-1103 partner limits assumed): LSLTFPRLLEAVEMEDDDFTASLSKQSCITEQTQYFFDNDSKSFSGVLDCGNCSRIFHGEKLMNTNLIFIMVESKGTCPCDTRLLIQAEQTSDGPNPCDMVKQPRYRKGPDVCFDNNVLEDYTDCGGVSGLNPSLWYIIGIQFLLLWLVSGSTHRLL
# L-type calcium channels = settings: read-out: EC50 for activation of L-type calcium channels; cited from earlier work
# [13] = target: P/Q-type calcium channels (Homo sapiens, UniProt O00555); settings: read-out: EC50 for activation of P/Q-type calcium channels; cited from earlier work
# [14] = in vivo; cited from earlier work
# [15] = phosphate salt; does not require refrigeration; cited from earlier work
# rats = settings: cited from earlier work
compound,measurement,setting,value
"Nc1ccncc1 [4-AP, 4-aminopyridine]",Incidence of adverse effects,[1],less than 5%
same,"Social preference (index), three-chamber test",Gtf2i cKO mice [2],normalized social preference; also recorded: decreased and normalized to control levels
same,Cmax,[3]; 10 mg oral solution,0.0427 µg/mL
same,Absorption from the gastrointestinal tract,[3]; oral,completely absorbed
same,Absolute bioavailability,[3]; two formulations of IR tablets,95%
same,Peak amplitude of evoked potential in corpus callosum,Gtf2i cKO mice [4],increased following 4-AP acute administration and normalized to control levels
same,Peak latency of evoked potential in corpus callosum,Gtf2i cKO mice [4],significantly decreased and normalized to control levels
same,Most effective concentration,[5],about 10 μM
same,EMG peak amplitude (cortico-spinal tract),Gtf2i cKO mice [6],increased significantly; also recorded: increased following 4-AP acute administration
same,EMG response latency (cortico-spinal tract),Gtf2i cKO mice [6],significantly shortened; also recorded: significantly decreased and normalized to control levels
same,"Fine motor skills, horizontal irregular ladder walking, forelimb and hindlimb",Gtf2i cKO mice [7],normalized fine motor skills; also recorded: rescued
same,Inhibition of Shaker channels,Shaker channels,selectively and reversibly inhibits
same,Concentrations causing gradual depolarization of the axon resting potential,[8],above 1 mM
same,Concentrations at which the action potential shows little or no sensitivity,[8]; normal adult myelinated axons,below 100 μM
same,Time of peak plasma concentrations,[9],within one hour
"Nc1ccncc1N.O=P(O)(O)O [Amifampridine, pyridine-3,4-diamine]",Solubility in water,[10]; 20° C.,25 mg/mL
same,Solubility in diethyl ether,[10],only slightly
same,"Solubility in methanol, ethanol and hot water",[10],readily soluble
same,Time to maximum concentrations in blood plasma,"[11]; 91 healthy subjects, after a fatty meal",1.3 (±0.9) hours
same,Time to maximum concentrations in blood plasma,"[11]; 91 healthy subjects, without food",0.6 (±0.25) hours
same,Area under the curve (AUC),[11]; 91 healthy subjects,0.117 ± 0.077 µg·h/mL
same,Biological half-life,[11]; 91 healthy subjects,2.5±0.7 hrs
same,AUC increase in slow metabolizers as compared to fast metabolizers,[11]; N-acetyltransferase activity,up to 9 fold
same,Eliminated via kidneys and urine as N-acetylamifampridine,"[11]; human, in vivo",74-81%
same,Eliminated via kidneys and urine in unchanged form,"[11]; human, in vivo",19%
same,Absorbed from the gut,[11]; oral,93-100%
CN1CCCC1CCOC(C)(c1ccccc1)c1ccc(Cl)cc1 (stereo not shown) [Clemastine],Impaired myelination,"socially isolated mice; oral clemastine, prolonged social isolation",rescued
same,Social avoidance behavior,"socially isolated mice; oral, 2 weeks, adult mice following prolonged social isolation",successfully reverse social avoidance behavior
same,Number of myelinating oligodendrocytes (mOLs) in cortex and CC midline,Gtf2i cKO mice [12],normalized
same,Number of myelinating oligodendrocytes (mOLs) in cortex and CC midline,Gtf2i cKO mice [12]; listed as clemastine,significantly increased and normalized to control levels
CCCn1cnc2c(NCc3ccc(C)s3)nc(N[C@H](CC)CO)nc21 [GV-58],EC50,N-type calcium channels,6.8 µM
same,EC50,L-type calcium channels,> 100 µM
same,EC50,[13],9.9 µM
"CC[N+](CC)(CC)CC.[Br-] [TEA, Tetraethylammonium]",Oral activity,[14],not orally active
"Nc1ccncc1N.O=P(O)(O)O [amifampridine phosphate, 4-aminopyridine-3-ylammonium dihydrogen phosphate]",Stability,[15],stable
same,Solubility in water,[10]; phosphate salt,readily soluble in water
"Opicinumab: fully human monoclonal antibody, LINGO-1 protein antagonist (Anti-Lingo-1)",Remyelination,rats,90%

# Source: patent publication US11730769B2, “Compositions and methods for Williams Syndrome (WS) therapy” (MASSACHUSETTS INSTITUTE OF TECHNOLOGY, priority 2017, dated 2023)
